Source: patent US12459922B2 (Gilead Sciences, Inc., priority 2022, dated 2025)

The compounds below were run on endogenous cellular STAT1 (phosphorylated at Tyr701) in NCI-H1373 cells (assay: Phospho-STAT1 (Tyr701) LANCE Ultra TR-FRET Detection Assay). Conditions: 48 hours, phospho-STAT1 (Tyr701) induction, read-out: NH1373 pSTAT1 EC50.
Type: cell-based

Row | EC50 | SMILES
1 | 16.7 nM | C[C@@H](CCCn1ccc2cc(-c3ncc(C(F)(F)F)c(N)n3)c(F)cc2c1=O)Nc1cn[nH]c(=O)c1C(F)(F)F [Example 128, (S)-6-(4-amino-5-(trifluoromethyl)pyrimidin-2-yl)-7-fluoro-2-(4-((6-oxo-5-(trifluoromethyl)-1,6-dihydropyridazin-4-yl)amino)pentyl)isoquinolin-1(2H)-one]

Same assay, conditions: Homo sapiens, 48 hours, phospho-STAT1 (Tyr701) induction, read-out: NH1373 pSTAT1 EC50

Row | SMILES | EC50
2 | O=c1[nH]ncc(N2CCCN2CCCn2ccc3cc(-c4ncc(C(F)(F)F)cn4)c(F)cc3c2=O)c1C(F)(F)F [Example 154, 7-fluoro-2-[3-[2-[6-oxo-5-(trifluoromethyl)-1H-pyridazin-4-yl]pyrazolidin-1-yl]propyl]-6-[5-(trifluoromethyl)pyrimidin-2-yl]isoquinolin-1-one] | 115 nM

Same assay, conditions: Homo sapiens, NCI-H1373, 48 h, phospho-STAT1 (Tyr701) induction, read-out: NH1373 pSTAT1 EC50

Row | SMILES | EC50
3 | C[C@@H](CCCn1cnc2cc(-c3ncc(S(C)(=O)=O)cn3)c(F)cc2c1=O)Nc1cn[nH]c(=O)c1C(F)(F)F [Example 126, (S)-6-fluoro-7-(5-(methylsulfonyl)pyrimidin-2-yl)-3-(4-((6-oxo-5-(trifluoromethyl)-1,6-dihydropyridazin-4-yl)amino)pentyl)quinazolin-4(3H)-one] | 1290 nM
4 | C[C@@H](CCCn1cnc2cc(-c3ncc(OCCO)cn3)c(F)cc2c1=O)Nc1cn[nH]c(=O)c1C(F)(F)F [Example 127, (S)-6-fluoro-7-(5-(2-hydroxyethoxy)pyrimidin-2-yl)-3-(4-((6-oxo-5-(trifluoromethyl)-1,6-dihydropyridazin-4-yl)amino)pentyl)quinazolin-4(3H)-one] | 474 nM
5 | C[C@@H](CCCn1ccc2cc(-c3ncc(OCCO)cn3)c(F)cc2c1=O)Nc1cn[nH]c(=O)c1C(F)(F)F [Example 129, (S)-7-fluoro-6-(5-(2-hydroxyethoxy)pyrimidin-2-yl)-2-(4-((6-oxo-5-(trifluoromethyl)-1,6-dihydropyridazin-4-yl)amino)pentyl)isoquinolin-1(2H)-one] | 77.8 nM
6 | O=c1[nH]ncc(NC[C@H]2C[C@H](Cn3ccc4cc(-c5ncc(C(F)(F)F)cn5)c(F)c(F)c4c3=O)C2)c1C(F)(F)F [Example 130, 7,8-difluoro-2-(((1R,3R)-3-(((6-oxo-5-(trifluoromethyl)-1,6-dihydropyridazin-4-yl)amino)methyl)cyclobutyl)methyl)-6-(5-(trifluoromethyl)pyrimidin-2-yl)isoquinolin-1(2H)-one] | 1470 nM
7 | C[C@@H](Nc1cn[nH]c(=O)c1C(F)(F)F)/C(F)=C/Cn1ccc2cc(-c3ncc(C(F)(F)F)cn3)c(F)c(F)c2c1=O [Example 131, (R,Z)-7,8-difluoro-2-(3-fluoro-4-((6-oxo-5-(trifluoromethyl)-1,6-dihydropyridazin-4-yl)amino)pent-2-en-1-yl)-6-(5-(trifluoromethyl)pyrimidin-2-yl)isoquinolin-1(2H)-one] | 158 nM
8 | CC(CCCn1ccc2cc(-c3ncc(C(F)(F)F)cn3)c(F)cc2c1=O)Oc1cn[nH]c(=O)c1C(F)(F)F (centres unmarked) [Example 136, 7-fluoro-2-[4-[[6-oxo-5-(trifluoromethyl)-1H-pyridazin-4-yl]oxy]pentyl]-6-[5-(trifluoromethyl)pyrimidin-2-yl]isoquinolin-1-one] | 75.9 nM
9 | CC(C)(CCCn1ccc2cc(-c3ncc(C(F)(F)F)c(N)n3)c(F)cc2c1=O)Nc1cn[nH]c(=O)c1C(F)(F)F [Example 137, 6-(4-amino-5-(trifluoromethyl)pyrimidin-2-yl)-7-fluoro-2-(4-methyl-4-((6-oxo-5-(trifluoromethyl)-1,6-dihydropyridazin-4-yl)amino)pentyl)isoquinolin-1(2H)-one] | 50.6 nM
10 | O=c1[nH]ncc(N2C[C@@H](O)C[C@H]2CCCn2ccc3cc(-c4ncc(C(F)(F)F)cn4)c(F)cc3c2=O)c1C(F)(F)F [Example 138, 7-fluoro-2-(3-((2R,4S)-4-hydroxy-1-(6-oxo-5-(trifluoromethyl)-1,6-dihydropyridazin-4-yl)pyrrolidin-2-yl)propyl)-6-(5-(trifluoromethyl)pyrimidin-2-yl)isoquinolin-1(2H)-one] | 55.5 nM
11 | O=c1[nH]ncc(N2CC(F)(F)C[C@H]2CCCn2ccc3cc(-c4ncc(C(F)(F)F)cn4)c(F)cc3c2=O)c1C(F)(F)F [Example 139, 2-[3-[(2R)-4,4-difluoro-1-[6-oxo-5-(trifluoromethyl)-1H-pyridazin-4-yl]pyrrolidin-2-yl]propyl]-7-fluoro-6-[5-(trifluoromethyl)pyrimidin-2-yl]isoquinolin-1-one] | 64.8 nM
12 | O=c1[nH]ncc(N2C[C@H](F)C[C@H]2CCCn2ccc3cc(-c4ncc(C(F)(F)F)cn4)c(F)cc3c2=O)c1C(F)(F)F [Example 140, 7-fluoro-2-[3-[(2R,4R)-4-fluoro-1-[6-oxo-5-(trifluoromethyl)-1H-pyridazin-4-yl]pyrrolidin-2-yl]propyl]-6-[5-(trifluoromethyl)pyrimidin-2-yl]isoquinolin-1-one] | 585 nM
13 | O=c1[nH]ncc(N2CC3(CC3)C[C@H]2CCCn2ccc3cc(-c4ncc(C(F)(F)F)cn4)c(F)cc3c2=O)c1C(F)(F)F [Example 142, 7-fluoro-2-[3-[(6R)-5-[6-oxo-5-(trifluoromethyl)-1H-pyridazin-4-yl]-5-azaspiro[2.4]heptan-6-yl]propyl]-6-[5-(trifluoromethyl)pyrimidin-2-yl]isoquinolin-1-one] | 38.6 nM
14 | Nc1nc(-c2cc3ccn(CCC[C@@H]4CC5(CC5)CN4c4cn[nH]c(=O)c4C(F)(F)F)c(=O)c3cc2F)ncc1C(F)F [Example 143, 6-[4-amino-5-(difluoromethyl)pyrimidin-2-yl]-7-fluoro-2-[3-[(6R)-5-[6-oxo-5-(trifluoromethyl)-1H-pyridazin-4-yl]-5-azaspiro[2.4]heptan-6-yl]propyl]isoquinolin-1-one] | 26.5 nM
15 | Nc1nc(-c2cc3ccn(CCC[C@@H](Nc4cn[nH]c(=O)c4C(F)(F)F)C4CC4)c(=O)c3cc2F)ncc1C(F)F [Example 147] | 39.1 nM
16 | CC[C@@H](CCCn1cnc2cc(-c3ncc(Cl)cn3)c(F)cc2c1=O)Nc1cn[nH]c(=O)c1C(F)(F)F [Example 157, 7-(5-chloropyrimidin-2-yl)-6-fluoro-3-[(4S)-4-[[6-oxo-5-(trifluoromethyl)-1H-pyridazin-4-yl]amino]hexyl]quinazolin-4-one] | 22.7 nM

Results, then the compound that gave them:

Row | EC50 | SMILES
17 | 3.47 nM | C[C@H](Nc1cn[nH]c(=O)c1C(F)(F)F)/C(F)=C/Cn1ccc2cc(-c3ncc(C(F)(F)F)cn3)c(F)c(F)c2c1=O [Example 132, (S,Z)-7,8-difluoro-2-(3-fluoro-4-((6-oxo-5-(trifluoromethyl)-1,6-dihydropyridazin-4-yl)amino)pent-2-en-1-yl)-6-(5-(trifluoromethyl)pyrimidin-2-yl)isoquinolin-1(2H)-one]
18 | 2.83 nM | C[C@@H](/C=C/Cn1ccc2cc(-c3ncc(C(F)(F)F)cn3)c(F)c(F)c2c1=O)Nc1cn[nH]c(=O)c1C(F)(F)F [Example 133, (S,E)-7,8-difluoro-2-(4-((6-oxo-5-(trifluoromethyl)-1,6-dihydropyridazin-4-yl)amino)pent-2-en-1-yl)-6-(5-(trifluoromethyl)pyrimidin-2-yl)isoquinolin-1(2H)-one]
19 | 5.19 nM | COc1cnc(-c2cc3ccn(C/C=C/[C@H](C)Nc4cn[nH]c(=O)c4C(F)(F)F)c(=O)c3cc2F)nc1N [Example 134, (S,E)-6-(4-amino-5-methoxypyrimidin-2-yl)-7-fluoro-2-(4-((6-oxo-5-(trifluoromethyl)-1,6-dihydropyridazin-4-yl)amino)pent-2-en-1-yl)isoquinolin-1(2H)-one]
20 | 17.7 nM | COC[C@@H](CCCn1ccc2cc(-c3ncc(C(F)(F)F)cn3)c(F)cc2c1=O)Nc1cn[nH]c(=O)c1C(F)(F)F [Example 135, (R)-7-fluoro-2-(5-methoxy-4-((6-oxo-5-(trifluoromethyl)-1,6-dihydropyridazin-4-yl)amino)pentyl)-6-(5-(trifluoromethyl)pyrimidin-2-yl)isoquinolin-1(2H)-one]
21 | 16.2 nM | O=c1[nH]ncc(N2C[C@@H](F)C[C@H]2CCCn2ccc3cc(-c4ncc(C(F)(F)F)cn4)c(F)cc3c2=O)c1C(F)(F)F [Example 141, 7-fluoro-2-[3-[(2R,4S)-4-fluoro-1-[6-oxo-5-(trifluoromethyl)-1H-pyridazin-4-yl]pyrrolidin-2-yl]propyl]-6-[5-(trifluoromethyl)pyrimidin-2-yl]isoquinolin-1-one]
22 | 3.55 nM | Nc1nc(-c2cc3ccn(CCC[C@@H](Nc4cn[nH]c(=O)c4C(F)(F)F)C4CC4)c(=O)c3cc2F)ncc1C(F)(F)F [Example 144, 6-[4-amino-5-(trifluoromethyl)pyrimidin-2-yl]-2-[(4R)-4-cyclopropyl-4-[[6-oxo-5-(trifluoromethyl)-1H-pyridazin-4-yl]amino]butyl]-7-fluoro-isoquinolin-1-one]
23 | 14.1 nM | N#Cc1cnc(-c2cc3ccn(CCC[C@@H](Nc4cn[nH]c(=O)c4C(F)(F)F)C4CC4)c(=O)c3cc2F)nc1N [Example 145, 4-amino-2-[2-[(4R)-4-cyclopropyl-4-[[6-oxo-5-(trifluoromethyl)-1H-pyridazin-4-yl]amino]butyl]-7-fluoro-1-oxoisoquinolin-6-yl]pyrimidine-5-carbonitrile]
24 | 14.5 nM | COc1cnc(-c2cc3ccn(CCC[C@@H](Nc4cn[nH]c(=O)c4C(F)(F)F)C4CC4)c(=O)c3cc2F)nc1N [Example 146, 6-(4-amino-5-methoxypyrimidin-2-yl)-2-[(4R)-4-cyclopropyl-4-[[6-oxo-5-(trifluoromethyl)-1H-pyridazin-4-yl]amino]butyl]-7-fluoroisoquinolin-1-one]
25 | 19.1 nM | O=c1[nH]ncc(N2CCC2CCCn2cnc3cc(-c4ncc(C(F)(F)F)cn4)c(F)cc3c2=O)c1C(F)(F)F (centres unmarked) [Example 150, 6-fluoro-3-[3-[1-[6-oxo-5-(trifluoromethyl)-1H-pyridazin-4-yl]azetidin-2-yl]propyl]-7-[5-(trifluoromethyl)pyrimidin-2-yl]quinazolin-4-one]
26 | 10.9 nM | COc1cnc(-c2cc3ccn(CCCC4CCN4c4cn[nH]c(=O)c4C(F)(F)F)c(=O)c3cc2F)nc1N (centres unmarked) [Example 153, 6-(4-amino-5-methoxy-pyrimidin-2-yl)-7-fluoro-2-[3-[1-[6-oxo-5-(trifluoromethyl)-1H-pyridazin-4-yl]azetidin-2-yl]propyl]isoquinolin-1-one]
